# Experimental data reported in article PMC7313537 (PLoS ONE, 2020).
# Columns and labels:
# LRRK2 = LRRK2 (Homo sapiens, UniProt Q5S007); test: Enzyme selectivity panel; type: biochemical; details: 1 mM ATP
# Procedure: (§2) The kinase assays were carried out at room temperature in HEPES 50 mM, pH 7.0, NaN3 0.02%, BSA 0.01%, Orthovanadate 0.1 mM, DTT 1 mM, MgCl2 10 mM in a final volume of 10 µL. Test compounds were transferred to the plate wells by ECHO liquid handler (Labcyte, San Jose, CA) with 0.5% dimethyl sulfoxide (DMSO) in the final assay. Peptide/kinase mixtures were diluted in the appropriate enzymatic buffer and 5µL of the mixture was added to a 384-well small volume black plate. Reactions were initiated by the addition of 5 µL ATP in reaction buffer, the final reaction mixture consisted of 500 nM peptide substrate, 1 mM ATP, and appropriate amount of specific kinase. […] The plates were then sealed and centrifuged at 1800 rpm for 2 minutes. […] Half maximal inhibitory concentration (IC50) determination was performed by fitting the curve of percent control activity versus the log of the compound concentration using the GraphPad Prism 6.0 software.
# EPHA2 = EPHA2 (Homo sapiens, UniProt P29317); test: Enzyme selectivity panel; type: biochemical; details: 1 mM ATP
# Procedure: as §2
# EGFR = EGFR (Homo sapiens, UniProt P00533); test: Enzyme selectivity panel; type: biochemical; details: 1 mM ATP
# Procedure: as §2
# JNK1 = JNK1 (Homo sapiens, UniProt P45983); test: Enzyme selectivity panel; type: biochemical; details: 1 mM ATP
# Procedure: as §2
# PRKAA1 = PRKAA1 (Homo sapiens, UniProt Q13131); test: Enzyme selectivity panel; type: biochemical; details: 1 mM ATP
# Procedure: as §2
# IKKB = IKKB (Homo sapiens, UniProt O14920); test: Enzyme selectivity panel; type: biochemical; details: 1 mM ATP
# Procedure: as §2
# TRKA = TRKA (Homo sapiens, UniProt P04629); test: Enzyme selectivity panel; type: biochemical; details: 1 mM ATP
# Procedure: as §2
# [1] = test system: FGFR3 phosphorylation in RT-4 cells; test: Proximity ligation assay; type: cell-based; details: 100 nM, 1 hour
# Excerpt: S4 Figure. FGFR3 Phosphorylation Detected by Proximity Ligation Assay. […] Primary antibodies were rabbit anti-FGFR3 (Abcam, Cambridge, UK, #137084) at a 1:250 dilution and mouse 4G10 platinum anti-phosphotyrosine monoclonal cocktail IgG2b (Millipore, Burlington, MA, #05-1050) at a 1:250 dilution. Secondary probes were Duolink In Situ PLA® Probe Anti-Rabbit PLUS, affinity purified donkey anti-rabbit IgG (H+L) and Duolink In Situ PLA® Probe Anti-Mouse MINUS, Affinity purified donkey anti-mouse IgG (H+L). Detection was via Duolink In Situ Detection Reagents Red.
# [2] = test system: myeloid/lymphoid neoplasm expressing CEP110-FGFR1; design: method as in PMID 29767670; details: single patient, CEP110-FGFR1 fusion ref 40; cited from earlier work
# AMPK = test: Broader kinase panel (PerkinElmer); type: biochemical; details: 100 nM
# Excerpt: (§1) […]. […] […].
# AXL = target: T1, AXL (Homo sapiens, UniProt P30530); test: Broader kinase panel (PerkinElmer); type: biochemical; details: 100 nM; read-out: Average Percent Inhibition
# T1 construct: purchased In-house HTRF panel (56 kinases) and PerkinElmer (161-kinase panel)
# Excerpt: as §1
# RSK4 = target: T2, RSK4 (Homo sapiens, UniProt Q9UK32); test: Broader kinase panel (PerkinElmer); type: biochemical; details: 100 nM; read-out: Average Percent Inhibition
# T2 construct: purchased In-house HTRF panel (56 kinases) and PerkinElmer (161-kinase panel)
# T2 sequence (Q9UK32 whole entry): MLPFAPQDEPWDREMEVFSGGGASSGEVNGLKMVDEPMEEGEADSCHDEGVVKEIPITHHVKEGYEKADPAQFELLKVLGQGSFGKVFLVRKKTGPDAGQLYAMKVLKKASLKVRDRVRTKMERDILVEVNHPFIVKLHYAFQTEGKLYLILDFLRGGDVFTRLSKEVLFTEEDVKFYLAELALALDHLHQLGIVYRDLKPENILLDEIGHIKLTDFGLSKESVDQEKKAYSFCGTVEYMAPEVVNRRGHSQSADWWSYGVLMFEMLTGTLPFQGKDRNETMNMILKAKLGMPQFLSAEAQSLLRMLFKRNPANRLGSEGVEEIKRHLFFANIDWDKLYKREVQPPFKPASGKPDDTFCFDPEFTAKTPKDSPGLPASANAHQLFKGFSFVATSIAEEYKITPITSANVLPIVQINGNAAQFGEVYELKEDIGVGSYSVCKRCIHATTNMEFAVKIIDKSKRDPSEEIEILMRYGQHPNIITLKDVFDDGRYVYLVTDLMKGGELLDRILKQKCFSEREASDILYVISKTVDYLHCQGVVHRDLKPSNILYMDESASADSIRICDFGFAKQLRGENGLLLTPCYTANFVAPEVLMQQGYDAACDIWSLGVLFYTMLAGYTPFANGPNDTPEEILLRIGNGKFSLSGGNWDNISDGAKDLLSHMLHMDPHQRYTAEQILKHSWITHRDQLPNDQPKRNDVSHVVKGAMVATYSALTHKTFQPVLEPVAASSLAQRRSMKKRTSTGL
# Excerpt: as §1
# PKC-alpha = target: T3, PKC-alpha (Homo sapiens, UniProt P17252); test: Broader kinase panel (PerkinElmer); type: biochemical; details: 100 nM; read-out: Average Percent Inhibition
# T3 construct: purchased In-house HTRF panel (56 kinases) and PerkinElmer (161-kinase panel)
# Excerpt: as §1
# PKC-beta1 = target: T4, PKC-beta1 (Homo sapiens, UniProt P05771); test: Broader kinase panel (PerkinElmer); type: biochemical; details: 100 nM; read-out: Average Percent Inhibition
# T4 construct: purchased In-house HTRF panel (56 kinases) and PerkinElmer (161-kinase panel)
# Excerpt: as §1
# MAPKAPK3 = target: T5, MAPKAPK3 (Homo sapiens, UniProt Q16644); test: Broader kinase panel (PerkinElmer); type: biochemical; details: 100 nM; read-out: Average Percent Inhibition
# T5 construct: purchased In-house HTRF panel (56 kinases) and PerkinElmer (161-kinase panel)
# Excerpt: as §1
# MSK2 = target: T6, MSK2 (Homo sapiens, UniProt O75676); test: Broader kinase panel (PerkinElmer); type: biochemical; details: 100 nM; read-out: Average Percent Inhibition
# T6 construct: purchased In-house HTRF panel (56 kinases) and PerkinElmer (161-kinase panel)
# Excerpt: as §1
# PKCz = target: T7, PKCz (Homo sapiens, UniProt Q05513); test: Broader kinase panel (PerkinElmer); type: biochemical; details: 100 nM; read-out: Average Percent Inhibition
# T7 construct: purchased In-house HTRF panel (56 kinases) and PerkinElmer (161-kinase panel)
# Excerpt: as §1
# MSK1 = target: T8, MSK1 (Homo sapiens, UniProt O75582); test: Broader kinase panel (PerkinElmer); type: biochemical; details: 100 nM; read-out: Average Percent Inhibition
# T8 construct: purchased In-house HTRF panel (56 kinases) and PerkinElmer (161-kinase panel)
# Excerpt: as §1
# FLT1 = target: T9, FLT1 (Homo sapiens, UniProt P17948); test: Broader kinase panel (PerkinElmer); type: biochemical; details: 100 nM; read-out: Average Percent Inhibition
# T9 construct: purchased In-house HTRF panel (56 kinases) and PerkinElmer (161-kinase panel)
# Excerpt: as §1
# PASK = target: T10, PASK (Homo sapiens, UniProt Q96RG2); test: Broader kinase panel (PerkinElmer); type: biochemical; details: 100 nM; read-out: Average Percent Inhibition
# T10 construct: purchased In-house HTRF panel (56 kinases) and PerkinElmer (161-kinase panel)
# Excerpt: as §1
# SGK3 = SGK3 (Homo sapiens, UniProt Q96BR1); test: Broader kinase panel (PerkinElmer); type: biochemical; details: 100 nM; read-out: Average Percent Inhibition
# Excerpt: as §1
# AurC = target: T11, AurC (Homo sapiens, UniProt Q9UQB9); test: Broader kinase panel (PerkinElmer); type: biochemical; details: 100 nM; read-out: Average Percent Inhibition
# T11 construct: purchased In-house HTRF panel (56 kinases) and PerkinElmer (161-kinase panel)
# T11 sequence (Q9UQB9 whole entry): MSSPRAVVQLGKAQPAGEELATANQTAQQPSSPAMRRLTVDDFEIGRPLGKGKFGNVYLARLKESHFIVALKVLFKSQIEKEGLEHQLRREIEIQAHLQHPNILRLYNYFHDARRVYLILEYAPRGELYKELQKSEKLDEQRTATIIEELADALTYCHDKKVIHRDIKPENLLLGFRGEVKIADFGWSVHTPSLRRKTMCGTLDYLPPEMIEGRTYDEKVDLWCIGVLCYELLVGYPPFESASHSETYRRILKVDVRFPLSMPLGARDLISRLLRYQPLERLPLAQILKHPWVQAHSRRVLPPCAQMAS
# Excerpt: as §1
# DYRK3 = target: T12, DYRK3 (Homo sapiens, UniProt O43781); test: Broader kinase panel (PerkinElmer); type: biochemical; details: 100 nM; read-out: Average Percent Inhibition
# T12 construct: purchased In-house HTRF panel (56 kinases) and PerkinElmer (161-kinase panel)
# Excerpt: as §1
# EPHB2 = target: T13, EPHB2 (Homo sapiens, UniProt P29323); test: Broader kinase panel (PerkinElmer); type: biochemical; details: 100 nM; read-out: Average Percent Inhibition
# T13 construct: purchased In-house HTRF panel (56 kinases) and PerkinElmer (161-kinase panel)
# Excerpt: as §1
# MET M1250T = target: T14, MET M1250T (Homo sapiens, UniProt P08581, M1250T); test: Broader kinase panel (PerkinElmer); type: biochemical; details: 100 nM; read-out: Average Percent Inhibition
# T14 construct: purchased In-house HTRF panel (56 kinases) and PerkinElmer (161-kinase panel)
# Excerpt: as §1
# PIM2 = target: T15, PIM2 (Homo sapiens, UniProt Q9P1W9); test: Broader kinase panel (PerkinElmer); type: biochemical; details: 100 nM; read-out: Average Percent Inhibition
# T15 construct: purchased In-house HTRF panel (56 kinases) and PerkinElmer (161-kinase panel)
# T15 sequence (Q9P1W9 whole entry, species assumed): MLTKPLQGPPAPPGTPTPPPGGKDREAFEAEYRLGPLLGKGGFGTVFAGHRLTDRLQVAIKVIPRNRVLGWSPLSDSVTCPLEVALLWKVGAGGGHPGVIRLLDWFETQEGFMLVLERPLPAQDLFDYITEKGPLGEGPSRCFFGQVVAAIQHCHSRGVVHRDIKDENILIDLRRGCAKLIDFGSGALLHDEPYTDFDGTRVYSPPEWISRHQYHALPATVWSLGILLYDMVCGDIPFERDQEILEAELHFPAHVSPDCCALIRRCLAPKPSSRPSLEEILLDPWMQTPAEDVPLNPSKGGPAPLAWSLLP
# Excerpt: as §1
# LYN = target: T16, LYN (Homo sapiens, UniProt P07948); test: Broader kinase panel (PerkinElmer); type: biochemical; details: 100 nM; read-out: Average Percent Inhibition
# T16 construct: purchased In-house HTRF panel (56 kinases) and PerkinElmer (161-kinase panel)
# Excerpt: as §1
# CLK2 = target: T17, CLK2 (Homo sapiens, UniProt P49760); test: Broader kinase panel (PerkinElmer); type: biochemical; details: 100 nM; read-out: Average Percent Inhibition
# T17 construct: purchased In-house HTRF panel (56 kinases) and PerkinElmer (161-kinase panel)
# Excerpt: as §1
# PKC-gamma = target: T18, PKC-gamma (Homo sapiens, UniProt P05129); test: Broader kinase panel (PerkinElmer); type: biochemical; details: 100 nM; read-out: Average Percent Inhibition
# T18 construct: purchased In-house HTRF panel (56 kinases) and PerkinElmer (161-kinase panel)
# Excerpt: as §1
# DCAMKL2 = target: T19, DCAMKL2 (Homo sapiens, UniProt Q8N568); test: Broader kinase panel (PerkinElmer); type: biochemical; details: 100 nM; read-out: Average Percent Inhibition
# T19 construct: purchased In-house HTRF panel (56 kinases) and PerkinElmer (161-kinase panel)
# Excerpt: as §1
# p38-gamma = target: T20, p38-gamma (Homo sapiens, UniProt P53778); test: Broader kinase panel (PerkinElmer); type: biochemical; details: 100 nM; read-out: Average Percent Inhibition
# T20 construct: purchased In-house HTRF panel (56 kinases) and PerkinElmer (161-kinase panel)
# T20 sequence (P53778 whole entry): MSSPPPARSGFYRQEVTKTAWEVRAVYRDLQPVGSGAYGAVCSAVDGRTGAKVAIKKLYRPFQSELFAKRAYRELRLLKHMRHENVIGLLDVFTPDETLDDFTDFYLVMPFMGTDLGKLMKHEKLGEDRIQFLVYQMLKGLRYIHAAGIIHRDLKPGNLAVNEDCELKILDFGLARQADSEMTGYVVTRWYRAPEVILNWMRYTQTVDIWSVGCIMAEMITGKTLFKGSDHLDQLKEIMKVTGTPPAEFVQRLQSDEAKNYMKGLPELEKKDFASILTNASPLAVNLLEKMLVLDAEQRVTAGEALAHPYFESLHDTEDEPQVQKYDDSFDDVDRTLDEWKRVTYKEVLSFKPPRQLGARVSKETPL
# Excerpt: as §1
# HIPK2 = target: T21, HIPK2 (Homo sapiens, UniProt Q9H2X6); test: Broader kinase panel (PerkinElmer); type: biochemical; details: 100 nM; read-out: Average Percent Inhibition
# T21 construct: purchased In-house HTRF panel (56 kinases) and PerkinElmer (161-kinase panel)
# Excerpt: as §1
# PAK5 (PAK7) = target: T22, PAK5 (PAK7) (Homo sapiens, UniProt Q9P286); test: Broader kinase panel (PerkinElmer); type: biochemical; details: 100 nM; read-out: Average Percent Inhibition
# T22 construct: purchased In-house HTRF panel (56 kinases) and PerkinElmer (161-kinase panel)
# Excerpt: as §1
# CK1-gamma 1 = target: T23, CK1-gamma 1 (Homo sapiens, UniProt Q9HCP0); test: Broader kinase panel (PerkinElmer); type: biochemical; details: 100 nM; read-out: Average Percent Inhibition
# T23 construct: purchased In-house HTRF panel (56 kinases) and PerkinElmer (161-kinase panel)
# Excerpt: as §1
# FMS = target: T24, FMS (Homo sapiens, UniProt P07333); test: Broader kinase panel (PerkinElmer); type: biochemical; details: 100 nM; read-out: Average Percent Inhibition
# T24 construct: purchased In-house HTRF panel (56 kinases) and PerkinElmer (161-kinase panel)
# Excerpt: as §1
# CK1g3 (CSNK1G3) = target: T25, CK1g3 (CSNK1G3) (Homo sapiens, UniProt Q9Y6M4); test: Broader kinase panel (PerkinElmer); type: biochemical; details: 100 nM; read-out: Average Percent Inhibition
# T25 construct: purchased In-house HTRF panel (56 kinases) and PerkinElmer (161-kinase panel)
# Excerpt: as §1
# BTK = BTK (Homo sapiens, UniProt Q06187); test: Enzyme selectivity panel; type: biochemical; details: 1 mM ATP
# Sequence of BTK (Q06187 whole entry, species assumed): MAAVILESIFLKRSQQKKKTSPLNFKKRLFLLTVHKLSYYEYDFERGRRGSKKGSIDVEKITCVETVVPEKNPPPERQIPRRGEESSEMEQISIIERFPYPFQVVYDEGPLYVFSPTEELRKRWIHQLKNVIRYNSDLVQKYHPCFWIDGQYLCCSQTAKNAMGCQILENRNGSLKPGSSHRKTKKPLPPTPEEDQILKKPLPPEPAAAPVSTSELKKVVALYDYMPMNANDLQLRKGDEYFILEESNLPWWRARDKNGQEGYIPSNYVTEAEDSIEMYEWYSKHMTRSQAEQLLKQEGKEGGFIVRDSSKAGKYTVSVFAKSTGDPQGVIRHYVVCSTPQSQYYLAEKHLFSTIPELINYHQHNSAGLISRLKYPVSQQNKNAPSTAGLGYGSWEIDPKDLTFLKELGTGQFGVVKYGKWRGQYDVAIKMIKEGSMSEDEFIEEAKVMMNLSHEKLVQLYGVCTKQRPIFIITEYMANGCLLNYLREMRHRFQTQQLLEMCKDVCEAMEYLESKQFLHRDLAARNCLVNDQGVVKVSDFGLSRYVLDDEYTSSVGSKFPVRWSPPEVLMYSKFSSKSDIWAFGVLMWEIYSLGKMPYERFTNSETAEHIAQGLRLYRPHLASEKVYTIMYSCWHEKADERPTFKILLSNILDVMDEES
# Procedure: as §2
# A549 = test: Cell viability assay (CellTiter-Glo); type: cell-based; details: Homo sapiens, Lung cancer, lacking FGFR alterations
# TF1-BCR-ABL = test: Cell viability assay (CellTiter-Glo); type: cell-based; details: AML/recombinant; lacking FGFR alterations
# Sequence of LRRK2 (Q5S007 whole entry, species assumed): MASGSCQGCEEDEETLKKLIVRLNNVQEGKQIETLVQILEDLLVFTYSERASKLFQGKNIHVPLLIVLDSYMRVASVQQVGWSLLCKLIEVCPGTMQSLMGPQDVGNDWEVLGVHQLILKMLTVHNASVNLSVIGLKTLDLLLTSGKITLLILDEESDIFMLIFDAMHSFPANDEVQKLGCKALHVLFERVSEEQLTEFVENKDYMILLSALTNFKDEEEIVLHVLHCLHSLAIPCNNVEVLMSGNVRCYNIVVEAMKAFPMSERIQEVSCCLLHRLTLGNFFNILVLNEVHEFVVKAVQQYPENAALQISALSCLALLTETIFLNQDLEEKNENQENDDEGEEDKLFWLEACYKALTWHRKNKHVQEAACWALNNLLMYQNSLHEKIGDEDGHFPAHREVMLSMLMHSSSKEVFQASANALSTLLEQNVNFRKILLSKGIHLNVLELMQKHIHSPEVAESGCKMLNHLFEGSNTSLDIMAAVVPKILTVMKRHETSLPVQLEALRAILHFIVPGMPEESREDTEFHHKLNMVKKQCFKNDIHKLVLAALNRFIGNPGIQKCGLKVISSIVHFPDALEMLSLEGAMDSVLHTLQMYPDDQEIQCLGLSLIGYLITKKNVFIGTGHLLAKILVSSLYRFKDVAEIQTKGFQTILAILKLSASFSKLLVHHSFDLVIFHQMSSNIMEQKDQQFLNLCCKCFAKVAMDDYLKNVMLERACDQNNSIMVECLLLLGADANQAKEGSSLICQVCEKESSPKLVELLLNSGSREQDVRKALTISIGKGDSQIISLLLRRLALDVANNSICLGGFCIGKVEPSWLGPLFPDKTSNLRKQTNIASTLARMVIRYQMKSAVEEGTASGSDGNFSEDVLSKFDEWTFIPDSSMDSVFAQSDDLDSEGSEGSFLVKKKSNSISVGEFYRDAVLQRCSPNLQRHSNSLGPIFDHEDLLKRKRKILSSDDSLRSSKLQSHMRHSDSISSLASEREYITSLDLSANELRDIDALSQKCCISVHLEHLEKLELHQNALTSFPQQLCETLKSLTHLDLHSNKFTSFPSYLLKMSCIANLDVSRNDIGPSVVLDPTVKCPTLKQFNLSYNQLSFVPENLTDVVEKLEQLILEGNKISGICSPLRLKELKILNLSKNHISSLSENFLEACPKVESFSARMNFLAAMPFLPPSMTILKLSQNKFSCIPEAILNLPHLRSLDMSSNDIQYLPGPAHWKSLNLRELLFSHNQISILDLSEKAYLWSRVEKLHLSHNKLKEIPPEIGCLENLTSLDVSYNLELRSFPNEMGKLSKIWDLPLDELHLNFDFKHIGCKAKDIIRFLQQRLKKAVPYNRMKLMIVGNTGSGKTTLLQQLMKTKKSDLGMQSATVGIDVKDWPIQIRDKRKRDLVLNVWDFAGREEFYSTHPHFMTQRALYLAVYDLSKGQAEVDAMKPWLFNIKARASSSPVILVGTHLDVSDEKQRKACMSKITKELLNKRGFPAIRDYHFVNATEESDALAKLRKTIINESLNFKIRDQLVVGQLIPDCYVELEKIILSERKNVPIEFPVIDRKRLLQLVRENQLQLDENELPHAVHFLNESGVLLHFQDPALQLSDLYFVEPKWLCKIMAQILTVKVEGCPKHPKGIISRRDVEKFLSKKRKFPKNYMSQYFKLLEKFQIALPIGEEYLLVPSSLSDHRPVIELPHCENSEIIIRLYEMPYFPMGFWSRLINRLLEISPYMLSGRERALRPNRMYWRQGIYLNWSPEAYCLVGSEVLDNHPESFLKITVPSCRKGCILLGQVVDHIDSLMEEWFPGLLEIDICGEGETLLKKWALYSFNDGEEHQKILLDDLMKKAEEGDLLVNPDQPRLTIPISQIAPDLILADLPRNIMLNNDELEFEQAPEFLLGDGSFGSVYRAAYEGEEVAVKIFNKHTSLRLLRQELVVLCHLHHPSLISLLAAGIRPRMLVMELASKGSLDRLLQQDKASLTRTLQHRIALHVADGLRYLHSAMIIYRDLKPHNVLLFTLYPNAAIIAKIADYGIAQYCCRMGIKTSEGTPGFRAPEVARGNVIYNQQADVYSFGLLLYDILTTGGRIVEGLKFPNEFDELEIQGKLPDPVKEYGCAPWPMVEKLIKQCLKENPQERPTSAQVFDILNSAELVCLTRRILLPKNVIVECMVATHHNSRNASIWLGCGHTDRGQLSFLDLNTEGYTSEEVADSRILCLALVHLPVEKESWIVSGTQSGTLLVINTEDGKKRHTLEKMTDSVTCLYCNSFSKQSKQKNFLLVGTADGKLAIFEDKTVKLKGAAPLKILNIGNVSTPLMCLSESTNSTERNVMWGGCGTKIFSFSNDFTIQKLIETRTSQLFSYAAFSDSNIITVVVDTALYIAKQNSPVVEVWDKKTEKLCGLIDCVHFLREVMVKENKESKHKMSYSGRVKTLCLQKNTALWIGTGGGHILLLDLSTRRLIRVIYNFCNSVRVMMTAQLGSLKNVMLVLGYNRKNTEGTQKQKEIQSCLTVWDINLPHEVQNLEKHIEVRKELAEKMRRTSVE
structure (smiles),measurement,setting,value
"CCN1C(=O)N(c2c(F)c(OC)cc(OC)c2F)Cc2cnc3[nH]c(CN4CCOCC4)cc3c21 [INCB054828, pemigatinib]",IC50,LRRK2,> 10 µM
same,IC50,EPHA2,> 10 µM
same,IC50,EGFR,> 10 µM
same,IC50,JNK1,> 10 µM
same,IC50,PRKAA1,> 10 µM
same,IC50,IKKB,> 10 µM
same,IC50,TRKA,> 10 µM
same,FGFR3 phosphorylation,[1],a decrease was detected
same,clinical response,[2],complete cytogenetic and hematologic remission
same,Average Percent Inhibition,AMPK,4%
same,inhibition at 0.1 µM,AXL,-8%
same,inhibition at 0.1 µM,RSK4,-1%
same,inhibition at 0.1 µM,PKC-alpha,16%
same,inhibition at 0.1 µM,PKC-beta1,7%
same,inhibition at 0.1 µM,MAPKAPK3,1%
same,inhibition at 0.1 µM,MSK2,-7%
same,inhibition at 0.1 µM,PKCz,1%
same,inhibition at 0.1 µM,MSK1,1%
same,inhibition at 0.1 µM,FLT1,13%
same,inhibition at 0.1 µM,PASK,-7%
same,inhibition at 0.1 µM,SGK3,13%
same,inhibition at 0.1 µM,AurC,-4%
same,inhibition at 0.1 µM,DYRK3,0%
same,inhibition at 0.1 µM,EPHB2,3%
same,inhibition at 0.1 µM,MET M1250T,1%
same,inhibition at 0.1 µM,PIM2,-5%
same,inhibition at 0.1 µM,LYN,14%
same,inhibition at 0.1 µM,CLK2,-3%
same,inhibition at 0.1 µM,PKC-gamma,7%
same,inhibition at 0.1 µM,DCAMKL2,3%
same,inhibition at 0.1 µM,p38-gamma,-3%
same,inhibition at 0.1 µM,HIPK2,-1%
same,inhibition at 0.1 µM,PAK5 (PAK7),6%
same,inhibition at 0.1 µM,CK1-gamma 1,-3%
same,inhibition at 0.1 µM,FMS,-10%
same,inhibition at 0.1 µM,CK1g3 (CSNK1G3),0%
same,IC50,BTK,> 10 µM
same,GI50,A549,> 5 µM
same,GI50,TF1-BCR-ABL,> 5 µM
